Measured values as given in patent US12295938B2, “Composition for treating castration-resistant prostate cancer, comprising quassinoids” (SAMSUNG LIFE PUBLIC WELFARE FOUNDATION, priority 2019, dated 2025).

Assays:
[1] = tested on: AR-V7 transcriptional activity; assay: MMTV-LUC luciferase reporter assay in 22RV1 cells, DHT− (screening and IC50); assay type: cell-based; conditions: 22RV1 cells, no DHT, control = 100
Protocol: (§1) A library of antimalarial agents was screened using a luciferase reporter assay to measure changes in AR/AR-V7 transcriptional activity.
(§2) Screening was made primarily with 10 μM of each drug.

[2] = tested on: AR transcriptional activity; assay: MMTV-LUC luciferase reporter assay in 22RV1 cells, DHT+ (screening and IC50); assay type: cell-based; conditions: with DHT, control = 100
Protocol: as §1, §2

Row | Molecule | MMTV-LUC activity (%) DHT− ([1]; 10 uM) | activity at 10 µM ([1]; Homo sapiens, 10 uM) | activity at 10 µM ([2]; Homo sapiens, 10 uM) | other results
1 | COC(=O)[C@]12OC[C@]34[C@H]([C@@H](O)[C@@H]1O)[C@@]1(C)C=C(O[C@@H]5O[C@H](CO)[C@@H](O)[C@H](O)[C@H]5O)C(=O)[C@@H](C)[C@@H]1C[C@H]3OC(=O)[C@H](OC(C)=O)[C@@H]24 [Yadanzioside F] | 133.6 ± 21.7% |  |  | MMTV-LUC activity (%) DHT+ ([2]; 10 uM): 139.5 ± 11.0%
2 | Yadanziolide C | 6.0 ± 0.7% |  |  | MMTV-LUC activity (%) DHT− ([1]; 0.1 uM): 80.5 ± 2.9%; MMTV-LUC activity (%) DHT− ([1]; 1 uM): 17.4 ± 3.1%; MMTV-LUC activity (%) DHT+ ([2]; 0.1 uM): 92.5 ± 0.9%; MMTV-LUC activity (%) DHT+ ([2]; 1 uM): 12.1 ± 2.0%; MMTV-LUC activity (%) DHT+ ([2]; 10 uM): 1.1 ± 0.1%
3 | C=C1[C@@H](O)[C@]2(O)OC[C@]34[C@H]2[C@@]2(C)[C@H](O)C(=O)C=C(C)[C@@H]2C[C@H]3OC(=O)[C@H](O)[C@@]14O [Eurycomanone] |  | 17.7 ± 2.7% | 6.7 ± 0.5% | activity at 0.1 µM ([1]; Homo sapiens, 0.1 uM): 128 ± 12%; activity at 1 µM ([1]; Homo sapiens, 1 uM): 59.1 ± 7.6%; activity at 0.1 µM ([2]; Homo sapiens, 0.1 uM): 108 ± 4.7%; activity at 1 µM ([2]; Homo sapiens, 1 uM): 51.3 ± 4.6%
4 | COc1c(O)cc2c(c1O)C(=O)c1c(cc(C)c(O)c1OC)C2=O [Aurantio-obtusin] |  | 119 ± 27.4% | 124 ± 2.2% | 
5 | COC1=C[C@@H](C)[C@@H]2C[C@H]3OC(=O)C[C@H]4C(C)=C(OC)C(=O)[C@H]([C@@]2(C)C1=O)[C@@]34C [Quassin] |  | 110 ± 9% | 120 ± 5.6% | 
6 | COC(=O)[C@]12OC[C@]34[C@H]([C@@H](O)[C@@H]1O)[C@@]1(C)C=C(O[C@@H]5O[C@H](CO)[C@@H](O)[C@H](O)[C@H]5O)C(=O)[C@@H](C)[C@@H]1C[C@H]3OC(=O)[C@H](OC(=O)/C=C(\C)C(C)C)[C@@H]24 [Bruceantinoside A] | 6.5 ± 0.9% |  |  | MMTV-LUC activity (%) DHT− ([1]; 0.1 uM): 44.9 ± 5.5%; MMTV-LUC activity (%) DHT− ([1]; 1 uM): 11.5 ± 5.6%; MMTV-LUC activity (%) DHT+ ([2]; 0.1 uM): 61.0 ± 7.3%; MMTV-LUC activity (%) DHT+ ([2]; 1 uM): 8.0 ± 0.2%; MMTV-LUC activity (%) DHT+ ([2]; 10 uM): 3.8 ± 1.1%
7 | CC[C@](C)(O)C(=O)O[C@H]1C(=O)O[C@@H]2C[C@H]3C(C)=CC(=O)[C@@H](O)[C@]3(C)[C@H]3[C@@]4(O)OC[C@]32[C@@H]1[C@@H](C)[C@H]4O [(+)-Glaucarubinone] | 107.6 ± 26.5% |  |  | MMTV-LUC activity (%) DHT+ ([2]; 10 uM): 117.7 ± 3.5%
8 | O=C1c2c(O)cccc2C([C@@H]2O[C@H](CO)[C@@H](O)[C@H](O)[C@H]2O)c2cc(CO)cc(O)c21 (stereo partly drawn) [Aloin A] | 108.3 ± 5.0% |  |  | 
9 | O=C(O)c1cc(O)c2c(c1)C(=O)c1cccc(O)c1C2=O [Rhein] |  | 83 ± 9.2% |  | 
10 | CC(=O)O[C@H](CC=C(C)C)C1=CC(=O)c2c(O)ccc(O)c2C1=O [Acetylshikonin] |  | 38.6 ± 3.2% | 17.7 ± 1.5% | activity at 1 µM ([1]; Homo sapiens, 1 uM): 103 ± 7.7%; activity at 1 µM ([2]; Homo sapiens, 1 uM): 113 ± 16.6%
11 | C[C@H]1COC2=C1C(=O)C(=O)c1c2ccc2c1CCCC2(C)C [Cryptotanshinone] |  | 70.3 ± 3.2% | 62.7 ± 15.3% | 
12 | COC(=O)[C@]12OC[C@]34[C@H]([C@@H](O)[C@@H]1O)[C@@]1(C)CC(=O)C(O[C@@H]5O[C@H](CO)[C@@H](O)[C@H](O)[C@H]5O)=C(C)[C@@H]1C[C@H]3OC(=O)[C@H](OC(C)=O)[C@@H]24 [Yadanzioside I] | 123.2 ± 10.4% |  |  | MMTV-LUC activity (%) DHT+ ([2]; 10 uM): 136.0 ± 7.1%
13 | CC1=CC(=O)c2c(O)cccc2C1=O [Plumbagin] |  | 26 ± 7.6% | 7.1 ± 0.1% | activity at 1 µM ([1]; Homo sapiens, 1 uM): 215 ± 16.1%; activity at 1 µM ([2]; Homo sapiens, 1 uM): 143 ± 27.5%
14 | C[C@H]1[C@H](OC(=O)CCC(=O)O)O[C@@H]2O[C@@]3(C)CC[C@H]4[C@H](C)CC[C@@H]1[C@@]24OO3 [Artesunate] |  | 107.6 ± 0.8% |  | 
15 | C=CCc1ccc(O)c(-c2cc(CC=C)ccc2O)c1 [Magnolol] |  | 130 ± 12% | 152 ± 8.6% | 
16 | COC(=O)c1c2c(c3ccccc3c1O)OC(C)(C)C=C2 [Mollugin] |  | 94.7 ± 9.5% | 112 ± 11.1% | 
17 | Bruceanic acid C | 68.5 ± 6.3% |  |  | MMTV-LUC activity (%) DHT+ ([2]; 10 uM): 85.8 ± 14.2%

Row | Molecule | MMTV-LUC activity (%) DHT− ([1]; 10 uM) | activity at 10 µM ([1]; Homo sapiens, 10 uM) | activity at 10 µM ([2]; Homo sapiens, 10 uM) | other results
18 | O=C(O)c1cc(O)c2c(c1)[C@H]([C@H]1c3cc(C(=O)O)cc(O)c3C(=O)c3c(O[C@@H]4O[C@H](CO)[C@@H](O)[C@H](O)[C@H]4O)cccc31)c1cccc(O[C@@H]3O[C@H](CO)[C@@H](O)[C@H](O)[C@H]3O)c1C2=O [Sennoside A] | 105.5 ± 4.4% |  |  | 
19 | CNC(=O)c1ccc(N2C(=S)N(c3ccc(C#N)c(C(F)(F)F)c3)C(=O)C2(C)C)cc1F [Enzalutamide] |  | 79.4 ± 34.6% |  | activity at 1 µM ([1]; Homo sapiens, 1 uM): 87.4 ± 11.3%
20 | CC1=CC(=O)[C@@H](O)[C@]2(C)[C@H]3[C@@H](O)[C@H](O)[C@]4(CO)OC[C@@]35[C@@H](C[C@@H]12)OC(=O)[C@H](O)[C@]54O [Yadanziolide A] | 8.0 ± 0.6% |  |  | MMTV-LUC activity (%) DHT− ([1]; 1 uM): 54.1 ± 13.0%; MMTV-LUC activity (%) DHT+ ([2]; 1 uM): 58.3 ± 10.9%; MMTV-LUC activity (%) DHT+ ([2]; 10 uM): 4.1 ± 0.2%
21 | CCCCN(CCCC)CC(O)c1cc(Cl)cc2c1-c1ccc(Cl)cc1/C2=C/c1ccc(Cl)cc1 (stereo not drawn) [Lumefantrine] |  | 138 ± 9.5% |  | 
22 | C=CC(C)(C)c1cc(/C=C/C(=O)c2ccc(O)cc2)c(OC)cc1O [Licochalcone A] | 202.7 ± 7.1% |  |  | MMTV-LUC activity (%) DHT+ ([2]; 10 uM): 235.6 ± 0.2%
23 | COC(=O)[C@]12OC[C@]34[C@H]([C@@H](O)[C@@H]1O)[C@@]1(C)C=C(O[C@@H]5O[C@H](CO)[C@@H](O)[C@H](O)[C@H]5O)C(=O)[C@@H](C)[C@@H]1C[C@H]3OC(=O)[C@H](OC(=O)/C=C(\C)C(C)(C)O)[C@@H]24 [Yadanzioside C] | 110.4 ± 11.6% |  |  | MMTV-LUC activity (%) DHT− ([1]; 1 uM): 118.9 ± 18.1%; MMTV-LUC activity (%) DHT+ ([2]; 1 uM): 55.6 ± 0.7%; MMTV-LUC activity (%) DHT+ ([2]; 10 uM): 5.8 ± 0.7%
24 | C[C@H](CC(=O)C[C@@H](C)[C@H]1C[C@H](O)[C@@]2(C)C3=C(C(=O)C[C@]12C)[C@@]1(C)CCC(=O)C(C)(C)[C@@H]1C[C@@H]3O)C(=O)O [Ganoderic acid A] | 140.0 ± 3.8% |  |  | MMTV-LUC activity (%) DHT+ ([2]; 10 uM): 148.9 ± 2.8%
25 | O=C(Nc1ccc([N+](=O)[O-])cc1Cl)c1cc(Cl)ccc1O [Niclosamide] |  | 9.4 ± 0.6% |  | activity at 1 µM ([1]; Homo sapiens, 1 uM): 119 ± 10.8%
26 | CC1CCCCCC(=O)c2c(O)cc(O)cc2CC(=O)O1 (stereo not drawn) [Curvularin] |  | 76.8 ± 3% | 91.6 ± 9.4% | 
27 | C[C@H]1[C@@H](O)O[C@@H]2O[C@@]3(C)CC[C@H]4[C@H](C)CC[C@@H]1[C@@]24OO3 [Dihydroartemisinin] |  | 115 ± 10.1% | 138 ± 7% | 
28 | COC(=O)[C@]12OC[C@]34[C@H]([C@@H](O)[C@@H]1O)[C@@]1(C)CC(=O)C(O)=C(C)[C@@H]1C[C@H]3OC(=O)[C@H](OC(=O)/C=C(\C)C(C)(C)OC(C)=O)[C@@H]24 [Bruceantinol] |  | 81.2 ± 62.1% | 44.5 ± 2.1% | activity at 1 µM ([1]; Homo sapiens, 1 uM): 73.5 ± 11.9%; activity at 1 µM ([2]; Homo sapiens, 1 uM): 119 ± 21.8%
29 | C[C@@H]1CC[C@H]2[C@@H](C)C(=O)O[C@@H]3O[C@@]4(C)CC[C@@H]1[C@]32OO4 [Artemisinin] |  | 107 ± 4.3% | 156 ± 17.6% | 
30 | CC(=O)Oc1cccc2c1C(=O)c1c(OC(C)=O)cc(C(=O)O)cc1C2=O [1,8-Diacetoxy-3-carboxyanthraquinone] |  | 101 ± 8.7% | 98.5 ± 2.1% | 
31 | COc1ncnc(NS(=O)(=O)c2ccc(N)cc2)c1OC [Sulfadoxine] |  | 116 ± 4.4% |  | 
32 | CCc1nc(N)nc(N)c1-c1ccc(Cl)cc1 [Pyrimethamine] |  | 130.5 ± 0.2% |  | 
33 | CCN(CCO)CCCC(C)Nc1ccnc2cc(Cl)ccc12 (stereo not drawn) [Hydroxychloroquinesulfate] |  | 92.3 ± 2% |  | 
34 | O=C1c2cccc(O)c2C(=O)c2c(O)cccc21 [1,8-Dihydroxyanthraquinone] |  | 83.8 ± 2.9% |  | 
